Source: paper PMC9401487 (Clinical Cancer Research, 2021)
Where two headings read alike, the source gives them in different places.

Columns and labels:
pRAD50 = pRAD50 IHC H-score in paired tumor biopsies; assay type: in vivo, human
[1] = test system: TP53-mutant triple-negative breast cancer PDX; conditions: cited from earlier work
[2] = Clinical plasma pharmacokinetics of ceralasertib; assay type: in vivo; conditions: human, oral
ATR = conditions: read-out: IC90 for ATR inhibition in cells; cited from earlier work

C[C@@H]1COCCN1c1cc(C2([S@](C)(=N)=O)CC2)nc(-c2cc[nH]c3nccc2-3)n1 [ceralasertib]
pRAD50 expression following treatment (pRAD50; all four evaluable paired tumor biopsies): clear increases in pRAD50 expression
Increase in pRAD50 expression (pRAD50; cohort 7 patient, baseline ATM 20%, H-scores of 20–80): 400%
Tumor control ([1]; carboplatin dosed concurrently with ceralasertib on day 2 or 3): growth inhibition rather than tumor control
Antitumor efficacy ([1]; ceralasertib dosed 2 days after carboplatin): tumor control
Antitumor efficacy ([1]; ceralasertib dosed 3 days after carboplatin): tumor regression
half-life ([2]; mean half-life, administered alone): 8.14 to 10.6 h
half-life ([2]; mean half-life, in combination with carboplatin): 5.14 to 7.22 h
Tmax ([2]; median tmax, in combination with carboplatin): 1.05 to 1.07 h
Tmax ([2]; median tmax, single dose, alone, across dose groups): 1 to 1.03 h
half-life ([2]; terminal plasma half-life, abstract summary): 8 to 11 h
Tmax ([2]; tmax, abstract summary): ~1 h
